The values that follow come from article PMC6437058 (mBio, 2019).

For the test, the target named is anthranilate synthase TrpE (Rv1609) (Mycobacterium tuberculosis, UniProt P9WFX3). In words: biochemical.

pIC50: −log10 of the molar value.

Chain of anthranilate synthase TrpE (Rv1609) (P9WFX3 whole entry): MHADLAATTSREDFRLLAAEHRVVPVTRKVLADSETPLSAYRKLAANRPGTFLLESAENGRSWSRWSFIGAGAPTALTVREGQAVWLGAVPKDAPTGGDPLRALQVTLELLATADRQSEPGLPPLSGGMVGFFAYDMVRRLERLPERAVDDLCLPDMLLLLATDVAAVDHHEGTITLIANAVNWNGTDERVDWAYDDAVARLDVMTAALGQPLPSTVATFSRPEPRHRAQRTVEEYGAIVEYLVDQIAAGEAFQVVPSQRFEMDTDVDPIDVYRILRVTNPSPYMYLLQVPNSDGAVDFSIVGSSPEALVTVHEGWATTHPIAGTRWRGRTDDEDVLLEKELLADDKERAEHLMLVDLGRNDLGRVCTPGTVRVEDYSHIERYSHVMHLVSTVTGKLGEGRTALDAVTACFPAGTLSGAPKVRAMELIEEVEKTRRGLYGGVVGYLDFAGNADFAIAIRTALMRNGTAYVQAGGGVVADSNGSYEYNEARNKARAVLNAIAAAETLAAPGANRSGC

A word on the pIC50: it is the negative decadic logarithm of the IC50, by convention in mol/L. `N[C@@H](Cc1c[nH]c2ccc(F)cc12)C(=O)O` [F-Trp, 5-fluoro-L-tryptophan]: the negative logarithm of the IC50 (pIC50) is 5.39.
